“And” between values parts separate entries of the source, which are not always exact repeats. Identical values can stand only once.
Biological target: Sigma non-opioid intracellular receptor 1 (Rattus norvegicus, UniProt Q9R0C9)
Sequence (Q9R0C9 whole entry): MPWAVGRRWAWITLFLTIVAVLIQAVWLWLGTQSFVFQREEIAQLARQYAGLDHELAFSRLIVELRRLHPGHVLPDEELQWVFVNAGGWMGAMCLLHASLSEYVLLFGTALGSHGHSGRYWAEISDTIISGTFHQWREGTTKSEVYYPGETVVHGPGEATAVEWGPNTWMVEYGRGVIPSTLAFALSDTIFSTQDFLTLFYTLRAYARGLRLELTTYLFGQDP

SMILES | Ki
CCC12CCN(CC3(O)CC3)C(Cc3ccc(O)cc31)C2(C)C (stereo unspecified) | 229 nM
CCC1(c2ccccc2)OCC([C@H]2CCCCN2)O1 (stereo partly specified) | 82 nM and 152 nM
c1ccc(C2(N3CCCCC3)CCCCC2)cc1 | 29 nM and 135 nM
c1ccc(C2(c3ccccc3)OCC(C3CCCCN3)O2)cc1 (racemic) | 23 nM and 141 nM
CN[C@@]1(c2ccccc2Cl)CCCCC1=O [2-(2-Chloro-phenyl)-2-methylamino-cyclohexanone(Ketamine)] | 440 nM and 1450 nM
Oc1ccc2c(c1)C13CCCCC1C(C2)N(CC1CC1)CC3 (stereo unspecified) [17-(cyclopropylmethyl)-17-azatetracyclo[7.5.3.0^{1,10}.0^{2,7}]heptadeca-2(7),3,5-trien-4-ol] | 226 nM and 287 nM
C[C@@H]1[C@@H]2Cc3ccc(O)cc3[C@@]1(C)CCN2CC1CC1 [(SSS)-12-Cyclopropylmethyl-13-methyl-12-aza-tricyclo[9.1.1.0*3,8*]trideca-3(8),4,6-trien-6-ol(cyclazocine)] | 69 nM and 125 nM
CC1(C2(C)COC(c3ccccc3)(c3ccccc3)O2)CCCCN1 (stereo unspecified) [CAS_4792-18-1] | 5500 nM and 1900 nM
Oc1noc2c1CCNC2 [CAS_64603-91-4] | > 10000 nM
Cc1cccc(C2(N3CCCCC3)CCCCC2)c1 [PCP,m-OH] | 8 nM and 77 nM
C=CCN1CC[C@]2(C)c3cc(O)ccc3C[C@@H]1[C@@H]2C [SKF 10,047 (-)] | 117 nM and 134 nM and 229 nM and 571 nM
